Literature values, collected in patent US6780436B1, “Solid oral pharmaceutical formulation of modified release that contains an acid labile benzimidazole compound” (Laboratorios Del Dr. Esteve, SA, priority 1999, dated 2004).

Settings: hard gelatin capsules that contain omeprazole pellets with enteric coating; stated 'in general' in the background

## COc1ccc2[nH]c([S+]([O-])Cc3ncc(C)c(OC)c3C)nc2c1 (stereo not shown) [omeprazole, 5-methoxy-2[[(4-methoxy-3,5-dimethyl-2-pyridinyl)methyl]sulphinyl]-1H-benzimidazole]
  time of peak plasma concentration after administration: 2 h
